One series has as its system stomach (gastric lesion). Description: Ulcerogenic activity in rats after a single administration. The class given is in vivo, male albino rats, Wistar strain. As to conditions: rat, in vivo, po. As to the method: The ulcerogenic activity of MRAP2 was tested both after a single administration of the drug, and after prolonged administration.
In these tests, a total of 70 male albino rats of Wistar strain were used, having a weight of 200±20 grams.
The MRAP2 was administered diluted in tap water.
40 rats, fasted for 18 hours before the experiment, were divided into four batches of ten animals and treated orally as follows:
3rd group: MRAP2 (50 mg/kg)
4th group: MRAP2 (125 mg/kg).
The animals were killed after six hours. The stomach was withdrawn and the gastric lesion index was evaluated in terms of an arbitrary scale of values lying between 0. and 7 based on previous models proposed by other authors.
Furthermore, the treatment was randomised in order to eliminate any possible polarisation of the data.
The points given for gastric ulcerative lesions were as follows:
(1) hyperaemia or slight capillary obstruction; or slight loss of the epithelium; or some petechiae even with pale mucosa without hyperaemia;
(2) diffuse capillary obstructions or numerous petechiae; or diffuse loss of the epithelium; of a few surface lesions;
(3) strong submucosa haemorrhage; or many petechiae and small surface lesions; or much anaemic mucosa (yellowish colour); or up to three small ulcers;
(4) general pattern as in the previous numbers, plus up to ten small ulcers; or long erosions; or up to three medium sized ulcers;
(5) pattern as in number 4, with up to 15 small ulcers; or up to 6 large ulcers;
(6) pattern as previously, with up to ten large ulcers, plus small ulcers;
(7) pattern as previously, plus up to ten large ulcers and small ulcers; cases of perforated ulcers.

For series [1], the system named is human PRP (Platelet Rich Plasma), platelet aggregation induced by ADP. Nature of the series: In vitro platelet antiaggregation activity (Born method, ADP-induced). As to conditions: Platelet, ADP 10^-3 mM. The format is cell-based. Here is the method: The method described by Born (Nature, 194, 927, 1962) was followed for this test, based on the increase in the platelet aggregation induced by ADP. The experiment was conducted using a human PRP (Platelet Rich Plasma) pool from four healthy volunteers who had not taken any drugs for ten days. The PRP was adjusted to 280,000±20,000 and kept at ambient temperature for the entire duration of the test.
400 μl of PRP and 100 μl of MRAP2 dissolved in a physiological solution and adjusted to a pH of 7.4 were placed in plastic test tubes. Three doses of the drug in question (0.181, 0.904 and 1.818 mg/ml) were used.
Three dilutions of aspirin were prepared under the same conditions for use as a comparison drug. Two minutes after contact between the drug and PRP, the test tube was inserted into the aggregometer cell (EEI, Model 169 with Corning Recorder Mod.840). After 60 seconds, ADP (10^-3 mM) was added and the aggregation was recorded. In calculating the antiaggregation activity, reference was made to the maximum amplitude of the aggregation curved obtained with ADP. Assuming this amplitude to be 100, the amplitudes of the curves obtained with the various doses of MRAP2 and aspirin were calculated as a percentage.

The subject of a further series is platelet aggregation. Description: In vivo platelet antiaggregation activity. As to conditions: rats, single oral dose 3 mg/kg. Details: species or system male rats, Wistar strain. As to the method:
This experiment was carried out on male rats of the Wistar strain having a weight of 320±20 grams. Both the MRAP2 and the aspirin (used as a comparison drug) were dissolved in a physiological solution, and the solutions, adjusted to pH 7.4, were administered orally in doeses of 3 mg/kg to two groups of three rats each. […] The concentration of the solution was adjusted to contain 100 mg of MRAP2 per ml. Blood samples were drawn from each animal 72 and 120 hours after treatment, for checking the platelet aggregation. In calculating the activity, the previous method was used (the average of the three maximum amplitudes of the curves obtained with the untreated rats was given the control figure of 100%).

As for `CCCCC1C(=O)N(c2ccccc2)N(c2ccccc2)C1=O` [phenylbutazone, reference compound], the “incidence of ulcerative lesions (in words)” value with stomach (gastric lesion) is given as “very marked”.

For the compound `CC(=O)Oc1ccccc1C(=O)O` [aspirin, reference compound], the inhibition of platelet aggregation at 181 µg/mL in series [1] (drug 0.181 mg/ml) was 5%. Moreover, in series [1] (drug 0.181 mg/ml, serum + ADP = 100), the activity at 181 µg/mL is 95%. In series [1] (drug 0.904 mg/ml), this compound displayed an inhibition of platelet aggregation at 904 µg/mL of 63%. The activity at 904 µg/mL in series [1] (drug 0.904 mg/ml, serum + ADP = 100) stood at 37%. The inhibition of platelet aggregation at 1818 µg/mL in series [1] (drug 1.818 mg/ml) turned out to be 74%. Also, in series [1] (drug 1.818 mg/ml, serum + ADP = 100), the activity at 1818 µg/mL worked out at 26%. In addition, the “% platelet antiaggregation activity on day 3” value with platelet aggregation (day 3 (72 hours)) is 25%. In addition, in the series on platelet aggregation (day 3 (72 hours), controls = 100), the “% platelet aggregation on day 3” value worked out at 75%. Further, the “% platelet antiaggregation activity on day 5” value in the series with platelet aggregation (day 5 (120 hours)) was 25%. Besides, the “% platelet aggregation on day 5” value in the series with platelet aggregation (day 5 (120 hours), controls = 100) turned out to be 75%.
